Starred links: 1 amine or outer side, 2 acyl side, 3 side chain; linkers in the order of their positions; H or OH if unused. Positions of bridges follow the written chain, without caps; N, C: chain ends. Non-standard residues stand in square brackets, D forms with d. Residues, ends and D or L forms follow the SMILES beside them. ξ: configuration not given here. *: point of attachment. NMeF = CN[C@@H](Cc1ccccc1)C(=O)O; NMeI = CC[C@H](C)[C@H](NC)C(=O)O; NMeβAla = CN(CCC(=O)[*:2])[*:1]; NMeL = CN[C@@H](CC(C)C)C(=O)O; ξNMeF = CNC(Cc1ccccc1)C(=O)O; NMeV = CN[C@H](C(=O)O)C(C)C; NMeA = CN[C@@H](C)C(=O)O; Piperidide = C1CCN(*)CC1; dNMeA = CN[C@H](C)C(=O)O; Sar = CNCC(=O)O; tBu = CC(C)(C)*
Tests used:
[1] = PAMPA (parallel artificial membrane permeability assay); type: in vitro ADME; conditions: PAMPA, pH 6.5
Summary of the method: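 Artificial membrane was 10% (w/v) egg lecithin plus 0.5% (w/v) cholesterol in dodecane on a PVDF filter. A 10 mM DMSO stock was added at 0.5% (v/v) to donor buffer (50 mM MOPSO, pH 6.5, 5.0% glycocholic acid). After 18 h at 37 °C, LC/MS or LC/UV gave donor and acceptor levels for Pe.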

[2] = Metabolic stability in human hepatic microsome; type: in vitro ADME; conditions: human, microsomes, pH 7.4, CL NADPH(+)

CC[C@H](C)[C@H]1C(=O)N(C)[C@@H](CC(C)C)C(=O)N(C)[C@@H](Cc2ccccc2)C(=O)N[C@@H]([C@@H](C)O)C(=O)N(C)[C@@H](Cc2ccccc2)C(=O)N(C)[C@@H](CC(C)C)C(=O)N(C)[C@@H](C)C(=O)N[C@H](C(=O)N2CCCCC2)CC(=O)N[C@H](C)C(=O)N[C@@H](C)C(=O)N(C)[C@@H](CC(C)C)C(=O)N1C [DP-99] ([dA]A[NMeL][NMeI][NMeL][NMeF]T[NMeF][NMeL][NMeA]D-Piperidide; lactam N-11)
Papp at 18 hours, 50 µM [1]: 56 ×10⁻⁶ cm/s
microsomal CLint at 1 uM [2]: 52 µL/min/mg

CC[C@H](C)[C@H]1C(=O)N(C)[C@@H](CC(C)C)C(=O)N[C@H](C(=O)N2CCCCC2)CC(=O)N(C)[C@@H](C)C(=O)N(C)[C@@H](CC(C)C)C(=O)N[C@@H](CC(C)C)C(=O)N(C)[C@@H](Cc2ccccc2)C(=O)N[C@@H](COC(C)(C)C)C(=O)N(C)[C@@H](Cc2ccccc2)C(=O)N[C@@H]([C@@H](C)O)C(=O)N(C)[C@@H](C)C(=O)N1C [DP-100] ([NMeA][NMeL]L[NMeF]S(tBu)[NMeF]T[NMeA][NMeI][NMeL]D-Piperidide; lactam N-11)
Papp at 18 hours, 50 µM [1]: 1.7 ×10⁻⁶ cm/s
microsomal CLint at 1 uM [2]: 80 µL/min/mg

CC(C)C[C@@H]1NC(=O)CN(C)C(=O)[C@H](C(C)C)N(C)C(=O)[C@H](C)NC(=O)[C@H]([C@@H](C)O)NC(=O)[C@H](CC(C)C)N(C)C(=O)[C@H](C)N(C)C(=O)[C@H](CC(C)C)N(C)C(=O)[C@H](Cc2ccccc2)NC(=O)CCN(C)C(=O)C[C@@H](C(=O)N2CCCCC2)NC1=O [DP-102] ([NMeβAla]F[NMeL][NMeA][NMeL]TA[NMeV][Sar]LD-Piperidide; lactam N-11)
Papp at 18 hours, 50 µM [1]: 1.8 ×10⁻⁶ cm/s
microsomal CLint at 1 uM [2]: 5 µL/min/mg

CC[C@H](C)[C@H]1C(=O)N[C@@H]([C@@H](C)O)C(=O)N(C)[C@@H](C)C(=O)N(C)[C@@H](CC(C)C)C(=O)N[C@H](C(=O)N2CCCCC2)CC(=O)N(C)CCC(=O)N(C)[C@@H](CC(C)C)C(=O)N[C@@H](CC(C)C)C(=O)N(C)[C@@H](Cc2ccccc2)C(=O)N[C@@H](COC(C)(C)C)C(=O)N(C)C(Cc2ccccc2)C(=O)N1C (stereo partly drawn) [DP-103] ([NMeβAla][NMeL]L[NMeF]S(tBu)[ξNMeF][NMeI]T[NMeA][NMeL]D-Piperidide; lactam N-11)
Papp at 18 hours, 50 µM [1]: 19 ×10⁻⁶ cm/s
microsomal CLint at 1 uM [2]: 73 µL/min/mg

CC[C@H](C)[C@H]1C(=O)N(C)[C@@H](Cc2ccccc2)C(=O)N[C@@H](CC(C)C)C(=O)N[C@H](C(=O)N2CCCCC2)CC(=O)N(C)CCC(=O)N(C)[C@@H](CC(C)C)C(=O)N[C@@H]([C@@H](C)O)C(=O)N(C)[C@@H](Cc2ccccc2)C(=O)N(C)[C@@H](CC(C)C)C(=O)N[C@@H](C)C(=O)N(C)[C@@H](CC(C)C)C(=O)N1C [DP-104] ([NMeβAla][NMeL]T[NMeF][NMeL]A[NMeL][NMeI][NMeF]LD-Piperidide; lactam N-11)
Papp at 18 hours, 50 µM [1]: 6.7 ×10⁻⁶ cm/s
microsomal CLint at 1 uM [2]: 29 µL/min/mg

CC[C@H](C)[C@H]1C(=O)N[C@@H]([C@@H](C)O)C(=O)N(C)CC(=O)N(C)[C@@H](CC(C)C)C(=O)N[C@H](C(=O)N2CCCCC2)CC(=O)N(C)[C@H](C)C(=O)N[C@@H](CC(C)C)C(=O)N(C)[C@@H](CC(C)C)C(=O)N(C)[C@@H](Cc2ccccc2)C(=O)N[C@@H](C)C(=O)N(C)[C@@H](Cc2ccccc2)C(=O)N1C [DP-105] ([dNMeA]L[NMeL][NMeF]A[NMeF][NMeI]T[Sar][NMeL]D-Piperidide; lactam N-11)
Papp at 18 hours, 50 µM [1]: 45 ×10⁻⁶ cm/s
microsomal CLint at 1 uM [2]: 60 µL/min/mg

CC[C@H](C)[C@H]1C(=O)N(C)[C@@H](CC(C)C)C(=O)N[C@@H]([C@@H](C)O)C(=O)N2CCC[C@H]2C(=O)N[C@@H](Cc2ccccc2)C(=O)N[C@H](C(=O)N2CCCCC2)CC(=O)N(C)CC(=O)N(C)[C@@H](CC(C)C)C(=O)N[C@@H](Cc2ccccc2)C(=O)N[C@@H](CC(C)C)C(=O)NCC(=O)N1C [DP-106] ([Sar][NMeL]FLG[NMeI][NMeL]TPFD-Piperidide; lactam N-11)
Papp at 18 hours, 50 µM [1]: 34 ×10⁻⁶ cm/s
microsomal CLint at 1 uM [2]: 155 µL/min/mg
